Data as given in US20210045385A1, “PYRIDAZINONE-SUBSTITUTED KETOXIMES AS HERBICIDES” (FMC Corporation, priority 2018, published 2021).

How the values were obtained:
Format in all cases: in vivo
[1] = test system: Italian ryegrass (Lolium multiflorum); experiment: Test A preemergence, visual plant response rating; conditions: approx. 10 days
In short: (§1)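 Preemergence: seeds in loam/sand blend given directed soil spray of compound in non-phytotoxic solvent with surfactant. Postemergence: plants 2–10 cm, one- to two-leaf stage, sprayed with same formulation. Visual injury rated vs untreated controls after ~10 days in greenhouse, 0 (no effect) to 100 (complete control).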

[2] = test system: pigweed (Amaranthus retroflexus); experiment: Test A preemergence, visual plant response rating; conditions: approx. 10 days
In short: as §1

[3] = test system: foxtail, green (green foxtail, Setaria viridis); experiment: Test A preemergence, visual plant response rating; conditions: approx. 10 days
In short: as §1

[4] = test system: barnyardgrass (Echinochloa crus-galli); experiment: Test A preemergence, visual plant response rating; conditions: approx. 10 days
In short: as §1

[5] = test system: ragweed (common ragweed, Ambrosia elatior); experiment: Test A preemergence, visual plant response rating; conditions: approx. 10 days
In short: as §1

[6] = test system: kochia (Kochia scoparia); experiment: Test A preemergence, visual plant response rating; conditions: approx. 10 days
In short: as §1

[7] = test system: ducksalad (Heteranhera limosa); experiment: Test B flooded paddy test, visual plant response rating; conditions: 250 g ai/ha, Flood, applied to paddy water, 2-leaf stage, evaluated after 13 to 15 days
In short: (§2)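 Greenhouse paddy conditions applied: two-leaf plants, a 3 cm flood above the soil surface maintained throughout, and compound added to the water rather than the foliage. Plants were judged visually against controls at 13 to 15 days.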

[8] = test system: sedge, umbrella (small-flower umbrella sedge, Cyperus difformis); experiment: as above; conditions: 250 g ai/ha, Flood, applied to paddy water, 2-leaf stage, evaluated after 13 to 15 days
In short: as §2

[9] = test system: rice (Oryza sativa); experiment: as above; conditions: 250 g ai/ha, Flood, applied to paddy water, 2-leaf stage, evaluated after 13 to 15 days
In short: as §2

[10] = test system: barnyardgrass (Echinochloa crus-galli); experiment: as above; conditions: 250 g ai/ha, Flood, applied to paddy water, 2-leaf stage, evaluated after 13 to 15 days
In short: as §2

[11] = test system: wheat (Triticum aestivum); experiment: Test A postemergence, visual plant response rating; conditions: for Wheat plant response rating (0 to 100 scale): 500 g ai/ha, postemergence, 0 is no effect, 100 is complete control; for Wheat plant response rating: Postemergence, 125 g ai/ha, 0 to 100 scale (0 no effect, 100 complete control)
In short: as §1

[12] = test system: Italian ryegrass (Lolium multiflorum); experiment: Test A postemergence, visual plant response rating; conditions: for Ryegrass, Italian plant response rating (0 to 100 scale): 500 g ai/ha, postemergence, 0 is no effect, 100 is complete control; for Ryegrass, Italian plant response rating: Postemergence, 125 g ai/ha, 0 to 100 scale (0 no effect, 100 complete control)
In short: as §1

[13] = test system: pigweed (Amaranthus retroflexus); experiment: Test A postemergence, visual plant response rating; conditions: for Pigweed plant response rating (0 to 100 scale): 500 g ai/ha, postemergence, 0 is no effect, 100 is complete control; for Pigweed plant response rating: Postemergence, 125 g ai/ha, 0 to 100 scale (0 no effect, 100 complete control)
In short: as §1

[14] = test system: foxtail, green (green foxtail, Setaria viridis); experiment: Test A postemergence, visual plant response rating; conditions: for Foxtail, Green plant response rating (0 to 100 scale): 500 g ai/ha, postemergence, 0 is no effect, 100 is complete control; for Foxtail, Green plant response rating: Postemergence, 125 g ai/ha, 0 to 100 scale (0 no effect, 100 complete control)
In short: as §1

[15] = test system: blackgrass (Alopecurus myosuroides); experiment: Test A postemergence, visual plant response rating; conditions: for Blackgrass plant response rating (0 to 100 scale): 500 g ai/ha, postemergence, 0 is no effect, 100 is complete control; for Blackgrass plant response rating: Postemergence, 125 g ai/ha, 0 to 100 scale (0 no effect, 100 complete control)
In short: as §1

[16] = test system: galium (catchweed bedstraw, Galium aparine); experiment: Test A postemergence, visual plant response rating; conditions: for Galium plant response rating (0 to 100 scale): 500 g ai/ha, postemergence, 0 is no effect, 100 is complete control; for Galium plant response rating: Postemergence, 125 g ai/ha, 0 to 100 scale (0 no effect, 100 complete control)
In short: as §1

[17] = test system: barnyardgrass (Echinochloa crus-galli); experiment: Test A postemergence, visual plant response rating; conditions: for Barnyardgrass plant response rating (0 to 100 scale): 500 g ai/ha, postemergence, 0 is no effect, 100 is complete control; for Barnyardgrass plant response rating: Postemergence, 125 g ai/ha, 0 to 100 scale (0 no effect, 100 complete control)
In short: as §1

[18] = test system: corn (Zea mays); experiment: Test A postemergence, visual plant response rating; conditions: for Corn plant response rating (0 to 100 scale): 500 g ai/ha, postemergence, 0 is no effect, 100 is complete control; for Corn plant response rating: Postemergence, 125 g ai/ha, 0 to 100 scale (0 no effect, 100 complete control)
In short: as §1

[19] = test system: ragweed (common ragweed, Ambrosia elatior); experiment: Test A postemergence, visual plant response rating; conditions: for Ragweed plant response rating (0 to 100 scale): 500 g ai/ha, postemergence, 0 is no effect, 100 is complete control; for Ragweed plant response rating: Postemergence, 125 g ai/ha, 0 to 100 scale (0 no effect, 100 complete control)
In short: as §1

[20] = test system: kochia (Kochia scoparia); experiment: Test A postemergence, visual plant response rating; conditions: for Kochia plant response rating (0 to 100 scale): 500 g ai/ha, postemergence, 0 is no effect, 100 is complete control; for Kochia plant response rating: Postemergence, 125 g ai/ha, 0 to 100 scale (0 no effect, 100 complete control)
In short: as §1

Row | Compound | Ryegrass, Italian plant response rating (0 to 100 scale) ([1]; 125 g ai/ha Preemergence) | Ryegrass, Italian plant response rating (0 to 100 scale) ([1]; 500 g ai/ha Preemergence) | Pigweed plant response rating (0 to 100 scale) ([2]; 125 g ai/ha Preemergence) | Pigweed plant response rating (0 to 100 scale) ([2]; 500 g ai/ha Preemergence) | Foxtail, Green plant response rating (0 to 100 scale) ([3]; 125 g ai/ha Preemergence) | Foxtail, Green plant response rating (0 to 100 scale) ([3]; 500 g ai/ha Preemergence) | Barnyardgrass plant response rating (0 to 100 scale) ([4]; 125 g ai/ha Preemergence) | Barnyardgrass plant response rating (0 to 100 scale) ([4]; 500 g ai/ha Preemergence) | Ragweed plant response rating (0 to 100 scale) ([5]; 125 g ai/ha Preemergence) | Ragweed plant response rating (0 to 100 scale) ([5]; 500 g ai/ha Preemergence) | Kochia plant response rating (0 to 100 scale) ([6]; 125 g ai/ha Preemergence) | Kochia plant response rating (0 to 100 scale) ([6]; 500 g ai/ha Preemergence) | Plant response rating, Ducksalad (0 to 100 scale, 0 is no effect, 100 is complete control) [7] | Plant response rating, Sedge, Umbrella (0 to 100 scale, 0 is no effect, 100 is complete control) [8] | Plant response rating, Rice (0 to 100 scale, 0 is no effect, 100 is complete control) [9] | Plant response rating, Barnyardgrass (0 to 100 scale, 0 is no effect, 100 is complete control) [10] | Wheat plant response rating (0 to 100 scale) [11] | Wheat plant response rating [11] | Ryegrass, Italian plant response rating (0 to 100 scale) [12] | Ryegrass, Italian plant response rating [12] | further results
1 | CO/N=C(\c1cccc(C)c1)c1c(O)c(C)nn(C)c1=O [Compound 13] | 50 | 100 | 90 | 80 | 0 | 20 | 0 | 80 | 30 | 100 | 30 | 30 | 0 | 0 | 0 | 0 | 0 | 0 | 90 | 80 | Pigweed plant response rating (0 to 100 scale) [13]: 90; Pigweed plant response rating [13]: 40; Foxtail, Green plant response rating (0 to 100 scale) [14]: 60; Foxtail, Green plant response rating [14]: 10; Blackgrass plant response rating (0 to 100 scale) [15]: 50; Blackgrass plant response rating [15]: 10; Galium plant response rating (0 to 100 scale) [16]: 100; Galium plant response rating [16]: 90; Barnyardgrass plant response rating (0 to 100 scale) [17]: 50; Barnyardgrass plant response rating [17]: 10; Corn plant response rating (0 to 100 scale) [18]: 10; Corn plant response rating [18]: 0; Ragweed plant response rating (0 to 100 scale) [19]: 70; Ragweed plant response rating [19]: 70; Kochia plant response rating (0 to 100 scale) [20]: 60; Kochia plant response rating [20]: 20
2 | CCO/N=C(\c1ccccc1C)c1c(O)c(C)nn(C)c1=O [Compound 14] | 20 | 90 | 0 | 50 | 20 | 70 | 40 | 80 | 80 | 80 | 0 | 20 | 0 | 0 | 0 | 0 | 0 | 0 | 60 | 60 | Pigweed plant response rating (0 to 100 scale) [13]: 80; Pigweed plant response rating [13]: 20; Foxtail, Green plant response rating (0 to 100 scale) [14]: 40; Foxtail, Green plant response rating [14]: 20; Blackgrass plant response rating (0 to 100 scale) [15]: 60; Blackgrass plant response rating [15]: 30; Galium plant response rating (0 to 100 scale) [16]: 90; Galium plant response rating [16]: 90; Barnyardgrass plant response rating (0 to 100 scale) [17]: 40; Barnyardgrass plant response rating [17]: 20; Corn plant response rating (0 to 100 scale) [18]: 10; Corn plant response rating [18]: 0; Ragweed plant response rating (0 to 100 scale) [19]: 70; Ragweed plant response rating [19]: 60; Kochia plant response rating (0 to 100 scale) [20]: 50; Kochia plant response rating [20]: 20
